From US6268391A, “Benzylidene-1,3-dihydro-indol-2-one derivatives a receptor tyrosine kinase inhibitors, particularly of Raf kinases” (Glaxo Wellcome Inc., priority 1997, dated 2001) come the findings set out here.

Experiment [1] addresses T1, Human cRaf1 (Homo sapiens, UniProt P04049).
T1 construct: poly-histidine (C); made in house
As to the kind of experiment: Raf kinase assay (cRaf1 assay / Raf/MEK cascade assay). The experiment is classed as biochemical.

Experiment [2] deals with SW620 (human colon carcinoma cell line). In words: Cell Based Efficacy (MTT Assay), SW620. The settings on record: SW-620, 72 hours with compound, 50% inhibitory concentration. On the procedure: (§1) The potency of compounds of the invention are tested for their ability to inhibit cell proliferation and cell viability. The metabolic conversion of 3-(4,5-dimethylthiazol-2-yl)-2,5-diphenyltetrazolium bromide (MTT, Sigma #M2128) to a reduced form is a commonly used measure of cellular viability. Following is the procedure:
(§2) Cells are maintained in 75 cm^2 tissue culture flasks until ready for use. The cells are grown and plated for the assay in Dulbecco's modified Eagle's media containing 10% fetal bovine serum. For example, the following cell lines can be used: a) human foreskin fibroblasts (HFF), b) HT29 (human colon carcinoma cell line), c) MDA-MB-468 (human breast carcinoma cell line), d) RKO (human colon adenocarcinoma cell line), e) SW620 (human colon carcinoma cell line), f) A549 (human lung carcinoma cell line), and g) MIA PACA (human pancreatic carcinoma cell line). Cells are maintained at 37° C. in 10% CO2, 90% humidified air. Cells are plated in 96-well tissue culture plates at the densities listed below. 100 μL of cell suspension is added to each well of the 96-well plate except the top row of the plate which contains no cells and serves as a reference for the spectrophotometer. […]
(§3) Cells are incubated overnight in Dulbecco's modified Eagle's media containing 10% fetal bovine serum at 37° C. in 10% CO2, 90% humidified air prior to dosing. Cells are dosed in 10 sequential 3-fold dilutions starting at 30 uM depending upon the solubility of the compound. Compounds with solubilities of less than 30 uM are dosed at the highest soluble concentration. Stock solutions of compounds are made in 100% dimethyl sulfoxide (DMSO). Stock solutions are diluted in Dulbecco's modified Eagle's media containing 100 ug/mL gentamicin and 0.3 to 0.6% DMSO at the twice the highest concentration to be placed on the cells. If compounds have been dissolved in DMSO the final concentration of DMSO on the cells is kept below 0.3%. 3-fold serial dilutions are performed on each compound to prepare 10 concentrations of the compound for dosing. 100 μL of diluted compound is added to the 100 μL of media currently on the dish. For each concentration of compound, 2-4 replicate wells are prepared.
(§4) Cells are returned to incubator and allowed to proliferate in the presence of compound for 72 hours before addition of MTT. MTT is prepared in phosphate buffered saline (Irvine Scientific #9240) at a concentration of 2mg/mL. 50 μL per well of MTT solution is added to the 200 μL of media to yield a final concentration of 0.4 mg/mL and plates are returned to the incubator for 4 hours. After 4 hours incubation the media, compound and MTT mixture is aspirated from the plates and 100 μL of 100% DMSO is added to each well in addition to 25 μL of Sorenson's Buffer (0.1M glycine, 0.1M NaCl, pH 10.5). Quantitation of metabolic reduction of MTT in each plate is performed by reading optical density at 570 nm wavelength on a Molecular Devices UVmax microplate reader. Growth inhibition curves and 50% inhibitory concentrations are determined using Microsoft Excel.
(§5) Table 4 illustrates the inhibitory activity of compounds of the present invention against a representative kinase (raf) and the cytotoxicity of compounds of the present invention against a broad range of human tumor cell lines.

For experiment [3], the system named is MIA PACA (human pancreatic carcinoma cell line). In words: Cell Based Efficacy (MTT Assay), MIA PACA. The settings on record: MIA PaCa-2, 72 hours with compound, 50% inhibitory concentration. On the procedure: as §1
(§6) Cells are maintained in 75 cm^2 tissue culture flasks until ready for use. The cells are grown and plated for the assay in Dulbecco's modified Eagle's media containing 10% fetal bovine serum. For example, the following cell lines can be used: a) human foreskin fibroblasts (HFF), b) HT29 (human colon carcinoma cell line), c) MDA-MB-468 (human breast carcinoma cell line), d) RKO (human colon adenocarcinoma cell line), e) SW620 (human colon carcinoma cell line), f) A549 (human lung carcinoma cell line), and g) MIA PACA (human pancreatic carcinoma cell line). Cells are maintained at 37° C. in 10% CO2, 90% humidified air. Cells are plated in 96-well tissue culture plates at the densities listed below. 100 μL of cell suspension is added to each well of the 96-well plate except the top row of the plate which contains no cells and serves as a reference for the spectrophotometer.
MIA PACA 3000 cells/well
as §3, §4, §5

The test system of experiment [4] is MDA-MB-468 (human breast carcinoma cell line). As to the kind of experiment: Cell Based Efficacy (MTT Assay), MDA-MB-468. The settings on record: 72 hours with compound, 50% inhibitory concentration. As to the method: as §1, §2, §3, §4, §5
The subject of experiment [5] is PC-3 (prostate). In words: Cell Based Efficacy (MTT Assay), PC-3. The settings on record: Homo sapiens; 72 hours with compound; 50% inhibitory concentration. On the procedure: as §1, §6, §3, §4, §5
The subject of experiment [6] is HT29 (human colon carcinoma cell line). As to the kind of experiment: Cell Based Efficacy (MTT Assay), HT29. The settings on record: HT-29, 72 hours with compound, 50% inhibitory concentration. As to the method:
as §1, §6, §3, §4, §5

The test system of experiment [7] is HT-29 xenograft. As to the kind of experiment: Anti-tumor study in mice, HT-29 xenograft. The settings on record: 5 mg/kg. The format is in vivo. On the procedure: (§7) Mice are acquired from Taconic Farms and are maintained in Microisolator cages at 72±2° F. with a 12 hour light/dark cycle. Animals are housed at 4 mice per cage (28×17×12 cm ) and are given food and water ad libitum. Animals are numbered through the use of an ear punch or tail tattoo. All animal handling is done in a laminar flow hood.
(§8) Solid tumors are measured by caliper measurement through the skin. Caliper measurements are typically made twice weekly. Tumor weight is calculated using the equation (length×width^2 /2)=mg tumor weight.
(§9) Compounds are prepared in a vehicle consisting of DMSO, Cremophore and PBS.
Drug therapy begins when the average tumor size is approximately 40-50 mg, which usually is day 7 after implant. The dose schedule consists of one dose/day for 5 consecutive days. Drugs are administered at 3 or 4 dose-levels based upon the previously-determined maximally tolerated dose. A vehicle control group is also included. Drugs may be administered by either i.v., i.p., s.c., or oral (p.o.) transdermal routes or other alternative routes. Drugs may be administered via tail vein infusion. The injection volume administered for each mouse is usually 0.01-0.02 mL/g of body weight. In the case of i.v. injections and tail vein infusion animals are restrained in a Broome restrainer during handling. Animal are fasted overnight prior to p.o. dosing. […]

The test system of experiment [8] is SW620 xenograft. In words: Anti-tumor study in mice, SW620 xenograft. The format is in vivo. The settings on record: 50 mg/kg. On the procedure:
as §7
SW620, available from the American Type Culture Collection, are grown in media consisting of RPMI 1640 with fetal bovine serum (10%), sodium pyruvate (1.0 mM) and glutamine (2.0 mM). Cells are incubated at 37° C. in 5% CO2. Cells are harvested with trypsin (0.05%), centrifuged, and resuspended in PBS:matrigel (1:1) at 1×10^7 cell/ml.
One of the tumor cell lines used is the colon line SW620. Tumors are initiated by subcutaneous injection of a cell suspension into the right flank of each mouse. The inoculum consists of 2×10^6 cells/mouse/ 0.2 ml in PBS:matrigel (1:1).
as §8, §9
Drug therapy begins when the average tumor size is approximately 40-50 mg, which usually is day 7 after implant. […] Drugs are administered at 3 or 4 dose-levels based upon the previously-determined maximally tolerated dose. […]

[9] abbreviates: Table 3, read-out: Raf Kinase activity.

Molecules are shown by their SMILES. Read-outs that look alike come from different tables or passages of the source.

T1 sequence (P04049 whole entry): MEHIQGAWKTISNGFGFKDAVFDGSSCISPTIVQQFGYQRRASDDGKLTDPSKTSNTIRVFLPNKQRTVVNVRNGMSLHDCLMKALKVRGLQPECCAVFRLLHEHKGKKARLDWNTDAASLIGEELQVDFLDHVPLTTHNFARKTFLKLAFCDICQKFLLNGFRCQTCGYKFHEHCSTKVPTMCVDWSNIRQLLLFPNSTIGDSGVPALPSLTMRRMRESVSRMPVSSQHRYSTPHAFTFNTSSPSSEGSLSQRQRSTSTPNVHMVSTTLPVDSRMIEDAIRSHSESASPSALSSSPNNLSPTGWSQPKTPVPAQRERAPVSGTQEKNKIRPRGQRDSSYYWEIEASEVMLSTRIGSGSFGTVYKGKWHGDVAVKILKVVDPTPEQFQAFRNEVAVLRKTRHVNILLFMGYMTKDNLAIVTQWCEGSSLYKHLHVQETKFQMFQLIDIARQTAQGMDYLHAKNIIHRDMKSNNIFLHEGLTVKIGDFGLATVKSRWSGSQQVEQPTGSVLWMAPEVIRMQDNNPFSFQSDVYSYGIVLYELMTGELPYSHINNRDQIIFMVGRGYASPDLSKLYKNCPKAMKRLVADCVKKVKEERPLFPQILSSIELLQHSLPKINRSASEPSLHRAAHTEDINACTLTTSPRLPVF

For the compound `Cc1nc(-c2ccc3c(c2)C(=Cc2cc(Br)c(O)c(Br)c2)C(=O)N3)cs1` [Example 2, 3-(3,5-Dibromo-4-hydroxy-benzylidene)-5-(2-methyl-thiazol-4-yl)-1,3-dihydro-indol-2-one], the IC50 is less than 1000 nM in experiment [1] (setting [9]); less than 500 nM in experiment [1] (Table 4, read-out: Raf); 500 to 5000 nM in experiment [2]; 500 to 5000 nM in experiment [3]; 500 to 5000 nM in experiment [4]; 5000 to 50000 nM in experiment [5]. The IC50 in experiment [6] was in the range of 500 to 5000 nM. For the same compound, the “Tumor Response % Inhibition @ mg/kg” value in experiment [7] turned out to be 50%.

With `CCN(CC)CC(=O)c1ccc2c(c1)C(=Cc1cc(Cl)c(O)c(Cl)c1)C(=O)N2` [Example 85, 3-(3,5-Dichloro-4-hydroxy-benzylidene)-5-(2-diethylamino-acetyl)-1,3-dihydro-indol-2-one], the IC50 in experiment [1] (setting [9]) was less than 1000 nM. The “Tumor Response % Inhibition @ mg/kg” value in experiment [8] is 40%.
